Results published in ChEMBL document CHEMBL5346920, “Development of the "hidden" multi-target-directed ligands by AChE/BuChE for the treatment of Alzheimer's disease” (Eur J Med Chem, 2023).
The source made the active and inactive calls. The calls are words filed in the database; no cut-off is given here.

What was measured:
[1] = target: T1, Amine oxidase [flavin-containing] A (Homo sapiens, UniProt P21397); test: Inhibition of human recombinant MAO-A expressed in baculovirus-infected BTI cells using kynuramine as substrate incubated for 30 mins by fluorescence based analysis
T1 sequence (P21397 whole entry): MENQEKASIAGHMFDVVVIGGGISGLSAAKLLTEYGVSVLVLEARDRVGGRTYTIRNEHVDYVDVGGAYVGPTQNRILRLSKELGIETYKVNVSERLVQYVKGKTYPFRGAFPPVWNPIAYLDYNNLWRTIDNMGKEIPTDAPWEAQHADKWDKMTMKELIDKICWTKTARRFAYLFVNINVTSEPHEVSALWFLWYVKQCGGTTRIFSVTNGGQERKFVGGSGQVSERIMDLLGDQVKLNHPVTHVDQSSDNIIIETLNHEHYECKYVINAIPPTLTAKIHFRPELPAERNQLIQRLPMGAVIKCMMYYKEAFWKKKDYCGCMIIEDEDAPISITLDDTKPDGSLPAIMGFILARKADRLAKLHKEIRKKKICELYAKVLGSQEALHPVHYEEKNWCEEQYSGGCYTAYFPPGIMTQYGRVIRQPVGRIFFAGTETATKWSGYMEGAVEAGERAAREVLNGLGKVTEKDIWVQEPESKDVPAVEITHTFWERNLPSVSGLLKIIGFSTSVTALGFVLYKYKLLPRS

[2] = target: T2, Amine oxidase [flavin-containing] B (Homo sapiens, UniProt P27338); test: Inhibition of human recombinant MAO-B expressed in baculovirus-infected BTI cells using kynuramine as substrate incubated for 30 mins by fluorescence based analysis
T2 sequence (P27338 whole entry): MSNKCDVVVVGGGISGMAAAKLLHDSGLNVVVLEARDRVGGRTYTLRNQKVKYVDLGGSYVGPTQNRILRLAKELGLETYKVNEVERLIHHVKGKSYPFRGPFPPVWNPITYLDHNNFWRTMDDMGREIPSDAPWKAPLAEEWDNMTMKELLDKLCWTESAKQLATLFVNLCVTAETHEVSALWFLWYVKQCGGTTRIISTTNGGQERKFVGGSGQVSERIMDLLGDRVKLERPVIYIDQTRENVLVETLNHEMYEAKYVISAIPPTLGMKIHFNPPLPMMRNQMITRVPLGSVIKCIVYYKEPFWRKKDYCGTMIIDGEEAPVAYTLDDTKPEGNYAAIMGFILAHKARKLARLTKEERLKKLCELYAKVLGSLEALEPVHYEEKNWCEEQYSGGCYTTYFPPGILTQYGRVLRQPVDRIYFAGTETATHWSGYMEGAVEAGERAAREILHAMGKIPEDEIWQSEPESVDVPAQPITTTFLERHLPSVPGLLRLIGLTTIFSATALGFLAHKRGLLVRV

Homo sapiens = species on record: Homo sapiens; test: Selectivity index, ratio of IC50 for inhibition of human recombinant MAO-A expressed in baculovirus-infected BTI cells to IC50 for inhibition of human recombinant MAO-B expressed in baculovirus-infected BTI cells
[3] = target: Amyloid-beta precursor protein (Homo sapiens) (UniProt P05067); test: Inhibition of self-induced Amyloid beta (1 to 42) (unknown origin) aggregation at 25 uM incubated for 24 hrs by thioflavin T-based fluorescence analysis
BV-2 [4] = test: Cytotoxicity against mouse BV-2 cells assessed as reduction in cell viability at 10 uM by CCK8 assay; assay type: toxicity, cell-based; details: bv-2, 10 µM
[5] = (§1) Cytotoxicity against mouse BV-2 cells assessed as cell viability at 30 uM by CCK8 assay; assay type: toxicity, cell-based; details: BV-2 cells, read-out: Activity
BV-2 [6] = test: Anti-inflammatory activity against LPS-stimulated mouse BV-2 cells assessed as inhibition of LPS-induced NO production incubated for 24 hrs in presence of LPS; assay type: functional, cell-based; details: dose 1-9 µM
PC-12 [7] = test: Cytotoxicity against rat PC-12 cells assessed as cell viability at 40 uM by CCK-8 assay; assay type: toxicity, cell-based; details: pc-12, 40 µM
PC-12 [8] = test: Neuroprotective activity against Amyloid beta(25 to 35)-induced cell injury in rat PC12 cells assessed as cell viability at 5 uM pretreated for 2 hrs followed by incubation with Abeta(25 to 35) for 24 hrs by CCK-8 assay (reference value: 41 to 58.6%); assay type: functional; details: time 26 hrs, read-out: Activity
PC-12 [9] = test: Neuroprotective activity against Amyloid beta(25 to 35)-induced cell injury in rat PC12 cells assessed as cell viability at 10 uM pretreated for 2 hrs followed by incubation with Abeta(25 to 35) for 24 hrs by CCK-8 assay (reference value: 41 to 58.6%); assay type: functional; details: time 26 hrs, read-out: Activity
PC-12 [10] = test: Neuroprotective activity against Amyloid beta(25 to 35)-induced cell injury in rat PC12 cells assessed as cell viability at 20 uM pretreated for 2 hrs followed by incubation with Abeta(25 to 35) for 24 hrs by CCK-8 assay (reference value: 41 to 58.6%); assay type: functional; details: time 26 hrs, read-out: Activity
[11] = Metal chelating activity assessed as compound-Cu2+ complex formation by measuring maximum absorption wavelength shift from 316 to 446 nm at 37.5 uM incubated for 30 mins in presence of CuCl2 by UV-Vis spectrometry
[12] = Metal chelating activity assessed as compound-Al3+ complex formation by measuring maximum absorption wavelength shift from 316 to 434 nm at 37.5 uM incubated for 30 mins in presence of AlCl3 by UV-Vis spectrometry
[13] = Metal chelating activity assessed as compound-Fe2+ complex formation at 37.5 uM incubated for 30 mins in presence of FeSO4 by UV-Vis spectrometry
[14] = Metal chelating activity assessed as compound-Zn2+ complex formation at 37.5 uM incubated for 30 mins in presence of ZnCl2 by UV-Vis spectrometry
[15] = Metal chelating activity assessed as compound-Cu2+ complex formation at stoichiometric ratio of 1:1 at 37.5 uM in presence of CuCl2 by UV-Vis spectrometry
[16] = Metal chelating activity assessed as compound-Cu2+ complex formation by measuring inhibition of Cu2+-induced amyloid beta (1 to 42) aggregation at 25 uM by thioflavin T-based fluorescence analysis
[17] = Metal chelating activity assessed as compound-Cu2+ complex formation by measuring small fiber aggregates incubated for 24 hrs by transmission electron microscopy
Acetylcholinesterase = Acetylcholinesterase (Electrophorus electricus, UniProt O42275); test: Inhibition of electric eel AChE using acetylthiocholine chloride as substrate by Ellman's method
[18] = target: Cholinesterase (Equus caballus) (UniProt P81908); test: Inhibition of equine serum BuChE using butyrylthiocholine chloride as substrate at 25 uM by Ellman's method; assay type: cell-free
BV-2 [19] = test: Anti-inflammatory activity against LPS-stimulated mouse BV-2 cells assessed as inhibition of LPS-induced IL-6 production incubated for 24 hrs in presence of LPS; assay type: functional, cell-based; details: dose 1-9 µM
BV-2 [20] = test: Anti-inflammatory activity against LPS-stimulated mouse BV-2 cells assessed as inhibition of LPS-induced IL-1 beta production incubated for 24 hrs in presence of LPS; assay type: functional, cell-based; details: dose 1-9 µM
[21] = Permeability of the compound at 100 ug/ml incubated for 18 hrs by PAMPA assay; assay type: ADME; details: dose 100 µg/ml, read-out: permeability
[22] = Stability of the compound in blank gastric juice assessed as parent compound remaining at 1 mg/ml measured after 8 hrs by UPLC-MS/MS analysis; assay type: ADME; details: read-out: Stability
[23] = Stability of the compound in artificial gastric juice assessed as parent compound remaining at 1 mg/ml measured after 8 hrs by UPLC-MS/MS analysis; assay type: ADME; details: read-out: Stability
[24] = Stability of the compound in blank intestinal juice assessed as parent compound remaining at 1 mg/ml measured after 8 hrs by UPLC-MS/MS analysis; assay type: ADME; details: read-out: Stability
[25] = Stability of the compound in artificial intestinal juice assessed as parent compound remaining at 1 mg/ml measured after 8 hrs by UPLC-MS/MS analysis; assay type: ADME; details: read-out: Stability
[26] = Stability of the compound in rat plasma assessed as parent compound remaining at 10 ug/ml measured after 3 hrs by UPLC-MS/MS analysis; assay type: ADME, cell-free; details: at 10 µg/mL, read-out: Stability
[27] = Stability of the compound in rat liver microsomes assessed as parent compound remaining at 10 ug/ml measured after 60 mins by UPLC-MS/MS analysis; assay type: ADME, Microsome; details: at 10 µg/mL, read-out: Stability
BV-2 [28] = test: as §1; assay type: toxicity, cell-based; details: bv-2, 30 µM
BV-2 [29] = test: Anti-inflammatory activity against LPS-stimulated mouse BV-2 cells assessed as inhibition of LPS-induced IL-6 production by measuring IL-6 level at 9 uM incubated for 24 hrs in presence of LPS (reference value: 1503.2 pg/ml); assay type: functional
BV-2 [30] = test: Anti-inflammatory activity against LPS-stimulated mouse BV-2 cells assessed as inhibition of LPS-induced IL-6 production by measuring IL-6 level at 3 uM incubated for 24 hrs in presence of LPS (reference value: 1503.2 pg/ml); assay type: functional
BV-2 [31] = test: Anti-inflammatory activity against LPS-stimulated mouse BV-2 cells assessed as inhibition of LPS-induced IL-6 production by measuring IL-6 level at 1 uM incubated for 24 hrs in presence of LPS (reference value: 1503.2 pg/ml); assay type: functional
BV-2 [32] = test: Anti-inflammatory activity against LPS-stimulated mouse BV-2 cells assessed as inhibition of LPS-induced IL-1 beta production by measuring IL-beta level at 9 uM incubated for 24 hrs in presence of LPS (reference value: 221.3 pg/ml); assay type: functional
BV-2 [33] = test: Anti-inflammatory activity against LPS-stimulated mouse BV-2 cells assessed as inhibition of LPS-induced IL-1 beta production by measuring IL-beta level at 3 uM incubated for 24 hrs in presence of LPS (reference value: 221.3 pg/ml); assay type: functional
BV-2 [34] = test: Anti-inflammatory activity against LPS-stimulated mouse BV-2 cells assessed as inhibition of LPS-induced IL-1 beta production by measuring IL-beta level at 1 uM incubated for 24 hrs in presence of LPS (reference value: 221.3 pg/ml); assay type: functional
[35] = target: Cholinesterase (Equus caballus) (UniProt P81908); test: Reversible inhibition of equine serum BuChE assessed as enzyme activity using butyrylthiocholine chloride as substrate measured after dilution to 0.1XIC50 for 240 mins by Ellman's method; assay type: cell-free; design: scale not given: the % may be the effect or the level left
Danio rerio [36] = species on record: Danio rerio; test: Antialzheimer activity against AlCl3-induced Alzheimer's disease zebra fish model assessed as total distance moved at 8 uM treated for 24 hrs and measured after 24 hrs under light environment (reference value: 230 cm); assay type: functional; details: time 48 hrs
Danio rerio [37] = species on record: Danio rerio; test: Antialzheimer activity against AlCl3-induced Alzheimer's disease zebra fish model assessed as total distance moved at 8 uM treated for 24 hrs and measured after 24 hrs under dark environment (reference value: 312 cm); assay type: functional; details: time 48 hrs
Danio rerio [38] = species on record: Danio rerio; test: Antialzheimer activity against AlCl3-induced Alzheimer's disease zebra fish model assessed as total distance moved at 8 uM treated for 24 hrs and measured after 24 hrs under alternating light dark stimuli conditions (reference value: 543 cm); assay type: functional; details: time 48 hrs
Danio rerio [39] = species on record: Danio rerio; test: Neuroprotective activity against AlCl3-induced Alzheimer's disease zebra fish model assessed as inhibition of AlCl3-induced AChE activity at 8 uM treated for 24 hrs and measured after 24 hrs; assay type: functional, organism-based; details: time 48.0 hrs
Danio rerio [40] = species on record: Danio rerio; test: Neuroprotective activity against AlCl3-induced Alzheimer's disease zebra fish model assessed as increase in ACh content at 8 uM treated for 24 hrs and measured after 24 hrs; assay type: functional, organism-based; details: time 48.0 hrs

Sequence of Cholinesterase (Equus caballus) (P81908 whole entry): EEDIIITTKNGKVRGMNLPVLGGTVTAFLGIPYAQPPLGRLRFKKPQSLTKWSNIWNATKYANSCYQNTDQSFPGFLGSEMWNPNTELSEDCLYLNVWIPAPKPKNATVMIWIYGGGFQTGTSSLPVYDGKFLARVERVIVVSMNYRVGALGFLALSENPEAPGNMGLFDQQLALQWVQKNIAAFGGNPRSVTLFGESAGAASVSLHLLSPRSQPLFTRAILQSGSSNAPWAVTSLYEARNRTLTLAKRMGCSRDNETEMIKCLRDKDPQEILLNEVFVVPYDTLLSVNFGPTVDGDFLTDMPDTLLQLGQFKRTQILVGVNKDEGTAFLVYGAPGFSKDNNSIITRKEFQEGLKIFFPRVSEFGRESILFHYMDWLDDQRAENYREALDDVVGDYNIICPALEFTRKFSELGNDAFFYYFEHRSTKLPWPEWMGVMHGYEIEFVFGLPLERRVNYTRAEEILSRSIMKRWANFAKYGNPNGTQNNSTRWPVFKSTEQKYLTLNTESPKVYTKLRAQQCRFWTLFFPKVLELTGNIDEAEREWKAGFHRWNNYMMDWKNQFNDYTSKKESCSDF
Sequence of Acetylcholinesterase (O42275 whole entry): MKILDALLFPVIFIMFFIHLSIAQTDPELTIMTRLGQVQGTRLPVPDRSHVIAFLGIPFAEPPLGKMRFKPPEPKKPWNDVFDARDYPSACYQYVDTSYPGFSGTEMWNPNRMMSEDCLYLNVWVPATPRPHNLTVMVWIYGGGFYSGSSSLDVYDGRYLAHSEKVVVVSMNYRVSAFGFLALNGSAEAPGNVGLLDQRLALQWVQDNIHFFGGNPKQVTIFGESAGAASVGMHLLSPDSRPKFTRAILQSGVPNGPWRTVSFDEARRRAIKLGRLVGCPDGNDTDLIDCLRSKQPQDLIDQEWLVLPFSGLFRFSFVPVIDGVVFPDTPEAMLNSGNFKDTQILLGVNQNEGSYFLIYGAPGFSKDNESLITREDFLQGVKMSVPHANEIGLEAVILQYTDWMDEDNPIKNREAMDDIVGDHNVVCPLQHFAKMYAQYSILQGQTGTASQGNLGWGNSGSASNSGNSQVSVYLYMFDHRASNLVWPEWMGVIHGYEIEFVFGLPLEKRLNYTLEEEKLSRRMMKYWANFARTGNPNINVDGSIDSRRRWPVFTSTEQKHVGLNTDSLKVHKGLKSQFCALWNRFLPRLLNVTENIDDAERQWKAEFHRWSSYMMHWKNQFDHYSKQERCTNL
Sequence of Amyloid-beta precursor protein (Homo sapiens) (P05067 whole entry): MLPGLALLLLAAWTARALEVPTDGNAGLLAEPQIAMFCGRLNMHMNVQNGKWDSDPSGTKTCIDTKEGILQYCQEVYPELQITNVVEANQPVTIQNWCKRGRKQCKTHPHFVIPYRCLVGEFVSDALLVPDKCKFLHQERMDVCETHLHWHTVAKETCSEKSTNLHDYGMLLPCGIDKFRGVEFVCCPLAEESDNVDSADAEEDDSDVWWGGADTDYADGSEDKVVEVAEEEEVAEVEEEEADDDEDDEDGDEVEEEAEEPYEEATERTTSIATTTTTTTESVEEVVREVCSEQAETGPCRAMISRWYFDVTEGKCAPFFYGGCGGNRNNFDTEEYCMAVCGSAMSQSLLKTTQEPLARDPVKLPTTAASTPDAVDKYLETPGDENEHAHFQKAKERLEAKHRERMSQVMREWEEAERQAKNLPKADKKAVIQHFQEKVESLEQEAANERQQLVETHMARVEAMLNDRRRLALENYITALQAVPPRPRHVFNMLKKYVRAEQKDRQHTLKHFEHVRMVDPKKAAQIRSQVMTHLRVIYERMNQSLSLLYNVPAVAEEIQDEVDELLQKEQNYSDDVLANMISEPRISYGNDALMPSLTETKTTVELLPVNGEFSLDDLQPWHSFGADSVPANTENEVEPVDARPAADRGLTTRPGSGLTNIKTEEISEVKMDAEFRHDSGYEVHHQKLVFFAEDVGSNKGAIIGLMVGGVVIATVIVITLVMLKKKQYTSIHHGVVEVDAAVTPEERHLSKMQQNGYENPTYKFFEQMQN

O=C(/C=C/c1ccc(F)cc1)c1ccccc1O
IC50 [1]: 38.3 µM | IC50 [2]: 0.67 µM | Ratio IC50 (Homo sapiens): 57.2 | inhibition [3]: 76.9% | Activity (BV-2 [4]): Non-Toxic | viability at 30 µM [5]: 80.1% | Activity (BV-2 [6]): Dose-Dependent Effect | Activity (PC-12 [7]): Non-Toxic | viability at 5 µM (PC-12 [8]): 80.6% | viability at 10 µM (PC-12 [9]): 89.9% | viability at 20 µM (PC-12 [10]): 99.1% | Activity [11]: Active | Activity [12]: Active | Activity [13]: inactive | Activity [14]: inactive | Activity [15]: Active | inhibition [16]: 86.5% | Activity [17]: Active | IC50 (Acetylcholinesterase): 25.7 µM | inhibition [18]: 10.6% | Activity (BV-2 [19]): Dose-Dependent Effect | Activity (BV-2 [20]): Dose-Dependent Effect | Papp at 18 h, 100 ug/ml [21]: 11.5 ×10⁻⁶ cm/s | remaining at 8 h, 1 mg/ml [22]: 97% | remaining at 8 h, 1 mg/ml [23]: 99% | remaining at 8 h, 1 mg/ml [24]: 96% | remaining at 8 h, 1 mg/ml [25]: 96.5% | remaining at 3 h, 10 ug/ml [26]: 101% | remaining at 1 h, 10 ug/ml [27]: 97.2%

CC(C(=O)O)c1ccc(-c2ccccc2)c(F)c1 (configuration not stated) [FLURBIPROFEN]
Activity (BV-2 [28]): Non-Toxic | Activity (BV-2 [29]): 808.6 pg/mL | Activity (BV-2 [30]): 1096.7 pg/mL | Activity (BV-2 [31]): 1280.5 pg/mL | Activity (BV-2 [32]): 92.9 pg/mL | Activity (BV-2 [33]): 149.8 pg/mL | Activity (BV-2 [34]): 185.6 pg/mL

COc1cc2c(cc1OC)C(=O)C(CC1CCN(Cc3ccccc3)CC1)C2 (configuration not stated) [DONEPEZIL]
Activity [35]: 118% | Activity (Danio rerio [36]): 334 cm | Activity (Danio rerio [37]): 325 cm | Activity (Danio rerio [38]): 671 cm | Activity (Danio rerio [39]): Active | Activity (Danio rerio [40]): Active
